Assays:
[1] = system: bedstraw; experiment: Test B pre/postemergence bedstraw; format: in vivo, Galium aparine
How it was run: (§1)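 Response is a visual 0-to-10 score relative to untreated plants, where 0 means no effect and 10 means complete control, taken twelve to sixteen days after application. Treatments went onto soil at planting and onto foliage of 1- to 4-leaf plants, using a surfactant-containing non-phytotoxic solvent.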

[2] = system: blackgrass; experiment: Test B pre/postemergence blackgrass; format: in vivo, Alopecurus myosuroides
How it was run: as §1

[3] = system: surinam grass; experiment: Test B pre/postemergence surinam grass; format: in vivo, Brachiaria decumbens
How it was run: as §1

[4] = system: cocklebur; experiment: Test B pre/postemergence cocklebur; format: in vivo, Xanthium strumarium
How it was run: as §1

[5] = system: corn; experiment: Test B pre/postemergence corn; format: in vivo, Zea mays
How it was run: as §1

[6] = system: crabgrass; experiment: Test B pre/postemergence crabgrass; format: in vivo, Digitaria sanguinalis
How it was run: as §1

[7] = system: giant foxtail; experiment: Test B pre/postemergence giant foxtail; format: in vivo, Setaria faberii
How it was run: as §1

[8] = system: morningglory; experiment: Test B pre/postemergence morningglory; format: in vivo, Ipomoea hederacea
How it was run: as §1

[9] = system: soybean; experiment: Test B pre/postemergence soybean; format: in vivo, Glycine max
How it was run: as §1

[10] = system: velvetleaf; experiment: Test B pre/postemergence velvetleaf; format: in vivo, Abutilon theophrasti
How it was run: as §1

[11] = system: wheat; experiment: Test B pre/postemergence wheat; format: in vivo, Triticum aestivum
How it was run: as §1

[12] = system: wild oat; experiment: Test B pre/postemergence wild oat; format: in vivo, Avena fatua
How it was run: as §1

[13] = system: purple nutsedge; experiment: Test B pre/postemergence purple nutsedge; format: in vivo, Cyperus rotundus
How it was run: as §1

[14] = system: rice; experiment: Test B flood test rice; format: in vivo, Oryza sativa
How it was run: (§2)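 Each value is a visual injury score relative to controls, with 10 meaning complete control and 0 no effect. Evaluation took place twelve to sixteen days after the 2-leaf-stage plants were treated and kept in the greenhouse.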

[15] = system: smallflower flatsedge; experiment: Test B flood test smallflower flatsedge; format: in vivo, Cyperus difformis
How it was run: as §2

[16] = system: duck salad; experiment: Test B flood test duck salad; format: in vivo, Heteranthera limosa
How it was run: as §2

[17] = system: bamyardgrass; experiment: Test B flood test barnyardgrass; format: in vivo, Echinochloa crus-galli
How it was run: as §2

[18] = Postemergence, Rate 62 g/ha, scale 0 to 10, 0 is no effect, 10 is complete control
[19] = Postemergence, Rate 250 g/ha, scale 0 to 10, 0 no effect, 10 complete control
[20] = Preemergence, Rate 62 g/ha, scale 0 to 10, 0 is no effect, 10 is complete control
[21] = Preemergence, Rate 125 g/ha, scale 0 to 10 (0 no effect, 10 complete control)
[22] = Preemergence, Rate 250 g/ha, scale of 0 to 10 where 0 is no effect and 10 is complete control
[23] = Preemergence, Rate 500 g/ha, scale 0 (no effect) to 10 (complete control)
[24] = Rate 125 g/ha, Postemergence, scale 0 to 10, 0 no effect, 10 complete control
[25] = Rate 500 g/ha, Postemergence, scale 0 to 10, 0 no effect, 10 complete control
[26] = Rate 125 g/ha, Postemergence section (flood test species), scale 0 to 10, 0 no effect, 10 complete control
[27] = Rate 500 g/ha, listed under Postemergence (flood test species), scale 0 to 10, 0 no effect, 10 complete control
[28] = flood test, listed under Postemergence, Rate 250 g/ha, scale 0 to 10, 0 no effect, 10 complete control

## Cc1ccccc1-n1c(=O)on(C(=O)N(c2ccc(C#N)cc2)C(C)C)c1=O [Compound 51]
[1]; [18]
  Bedstraw plant response rating: 0
[1]; [19]
  Bedstraw plant response rating: 0
[1]; [20]
  Plant response rating, Bedstraw: 0
[1]; [21]
  Plant response rating, Bedstraw: 0
[1]; [22]
  Plant response rating, Bedstraw: 0
[1]; [23]
  Bedstraw plant response rating: 0
[1]; [24]
  Bedstraw plant response rating: 0
[2]; [18]
  Blackgrass plant response rating: 0
[2]; [19]
  Blackgrass plant response rating: 0
[2]; [20]
  Plant response rating, Blackgrass: 0
[2]; [21]
  Plant response rating, Blackgrass: 0
[2]; [22]
  Plant response rating, Blackgrass: 0
[2]; [23]
  Blackgrass plant response rating: 0
[2]; [24]
  Blackgrass plant response rating: 0
[2]; [25]
  Blackgrass plant response rating: 0
[3]; [18]
  B. signalgrass plant response rating: 0
[3]; [19]
  B. signalgrass plant response rating: 0
[3]; [20]
  Plant response rating, B. signalgrass: 0
[3]; [21]
  Plant response rating, B. signalgrass: 0
[3]; [22]
  Plant response rating, B. signalgrass: 0
[3]; [23]
  B. signalgrass plant response rating: 0
[3]; [24]
  B. signalgrass plant response rating: 0
[3]; Rate 500 g/ha, Postemergence, scale of 0 to 10 where 0 is no effect and 10 is complete control
  B. signalgrass plant response rating: 0
[4]; [18]
  Cocklebur plant response rating: 0
[4]; [19]
  Cocklebur plant response rating: 0
[4]; [20]
  Plant response rating, Cocklebur: 0
[4]; [21]
  Plant response rating, Cocklebur: 0
[4]; [22]
  Plant response rating, Cocklebur: 0
[4]; [23]
  Cocklebur plant response rating: 0
[4]; [24]
  Cocklebur plant response rating: 0
[4]; [25]
  Cocklebur plant response rating: 0
[5]; [18]
  Corn plant response rating: 0
[5]; [19]
  Corn plant response rating: 0
[5]; [20]
  Plant response rating, Corn: 0
[5]; [21]
  Plant response rating, Corn: 0
[5]; [22]
  Plant response rating, Corn: 0
[5]; [23]
  Corn plant response rating: 0
[5]; [24]
  Corn plant response rating: 0
[5]; [25]
  Corn plant response rating: 0
[6]; [18]
  Crabgrass plant response rating: 0
[6]; [19]
  Crabgrass plant response rating: 3
[6]; [20]
  Plant response rating, Crabgrass: 0
[6]; [21]
  Plant response rating, Crabgrass: 0
[6]; [22]
  Plant response rating, Crabgrass: 2
[6]; [23]
  Crabgrass plant response rating: 2
[6]; [24]
  Crabgrass plant response rating: 0
[6]; [25]
  Crabgrass plant response rating: 4
[7]; [18]
  Giant foxtail plant response rating: 0
[7]; [19]
  Giant foxtail plant response rating: 0
[7]; [20]
  Plant response rating, Giant foxtail: 0
[7]; [21]
  Plant response rating, Giant foxtail: 2
[7]; [22]
  Plant response rating, Giant foxtail: 4
[7]; [23]
  Giant foxtail plant response rating: 8
[7]; [24]
  Giant foxtail plant response rating: 0
[7]; [25]
  Giant foxtail plant response rating: 3
[8]; [18]
  Morningglory plant response rating: 0
[8]; [19]
  Morningglory plant response rating: 0
[8]; [20]
  Plant response rating, Morningglory: 0
[8]; [21]
  Plant response rating, Morningglory: 0
[8]; [22]
  Plant response rating, Morningglory: 0
[8]; [23]
  Morningglory plant response rating: 0
[8]; [24]
  Morningglory plant response rating: 0
[8]; [25]
  Morningglory plant response rating: 1
[9]; [18]
  Soybean plant response rating: 0
[9]; [19]
  Soybean plant response rating: 0
[9]; [20]
  Plant response rating, Soybean: 0
[9]; [21]
  Plant response rating, Soybean: 0
[9]; [22]
  Plant response rating, Soybean: 0
[9]; [23]
  Soybean plant response rating: 0
[9]; [24]
  Soybean plant response rating: 0
[9]; [25]
  Soybean plant response rating: 1
[10]; [18]
  Velvetleaf plant response rating: 0
[10]; [19]
  Velvetleaf plant response rating: 0
[10]; [20]
  Plant response rating, Velvetleaf: 0
[10]; [21]
  Plant response rating, Velvetleaf: 0
[10]; [22]
  Plant response rating, Velvetleaf: 0
[10]; [23]
  Velvetleaf plant response rating: 0
[10]; [24]
  Velvetleaf plant response rating: 0
[10]; [25]
  Velvetleaf plant response rating: 0
[11]; [18]
  Wheat plant response rating: 0
[11]; [19]
  Wheat plant response rating: 0
[11]; [20]
  Plant response rating, Wheat: 0
[11]; [21]
  Plant response rating, Wheat: 0
[11]; [22]
  Plant response rating, Wheat: 0
[11]; [23]
  Wheat plant response rating: 0
[11]; [24]
  Wheat plant response rating: 0
[11]; [25]
  Wheat plant response rating: 0
[12]; [18]
  Wild oats plant response rating: 0
[12]; [19]
  Wild oats plant response rating: 0
[12]; [21]
  Plant response rating, Wild oats: 0
[12]; [22]
  Plant response rating, Wild oats: 0
[12]; [23]
  Wild oats plant response rating: 0
[12]; [24]
  Wild oats plant response rating: 0
[12]; [25]
  Wild oats plant response rating: 0
[13]; [18]
  Nutsedge plant response rating: 0
[13]; [19]
  Nutsedge plant response rating: 0
[13]; [20]
  Plant response rating, Nutsedge: 0
[13]; [21]
  Plant response rating, Nutsedge: 0
[13]; [22]
  Plant response rating, Nutsedge: 0
[13]; [23]
  Nutsedge plant response rating: 0
[13]; [24]
  Nutsedge plant response rating: 0
[13]; [25]
  Nutsedge plant response rating: 0
[14]; [18]
  Rice plant response rating: 0
[14]; [26]
  Rice plant response rating: 0
[14]; [27]
  Rice plant response rating: 0
[14]; [28]
  Rice plant response rating: 0
[15]; [18]
  S. Flatsedge plant response rating: 0
[15]; [26]
  S. Flatsedge plant response rating: 0
[15]; [27]
  S. Flatsedge plant response rating: 0
[15]; [28]
  S. Flatsedge plant response rating: 0
[16]; [18]
  Ducksalad plant response rating: 0
[16]; [26]
  Ducksalad plant response rating: 0
[16]; [27]
  Ducksalad plant response rating: 0
[16]; [28]
  Ducksalad plant response rating: 0
[17]; [18]
  Barnyardgrass plant response rating: 0
[17]; [26]
  Barnyardgrass plant response rating: 0
[17]; [27]
  Barnyardgrass plant response rating: 0
[17]; [28]
  Barnyardgrass plant response rating: 0

From patent publication US6737383B1, “Herbicidal oxadiazolidines” (priority 1999, dated 2004)
